Each compound was assayed against T1, human OX2 receptor (Homo sapiens, UniProt O43614) (assay: Measurement of orexin type 2 receptor agonist activity (Experimental Example 2; Fluo-4 AM calcium fluorescence, FDSS μCELL)). Conditions: compound at 3 μM; CHO cells expressing human OX2 receptor; DMSO = 0%, 10 nM orexin A (human) = 100%.
T1 construct: expressed in transfected cells
T1 sequence (O43614 1-444): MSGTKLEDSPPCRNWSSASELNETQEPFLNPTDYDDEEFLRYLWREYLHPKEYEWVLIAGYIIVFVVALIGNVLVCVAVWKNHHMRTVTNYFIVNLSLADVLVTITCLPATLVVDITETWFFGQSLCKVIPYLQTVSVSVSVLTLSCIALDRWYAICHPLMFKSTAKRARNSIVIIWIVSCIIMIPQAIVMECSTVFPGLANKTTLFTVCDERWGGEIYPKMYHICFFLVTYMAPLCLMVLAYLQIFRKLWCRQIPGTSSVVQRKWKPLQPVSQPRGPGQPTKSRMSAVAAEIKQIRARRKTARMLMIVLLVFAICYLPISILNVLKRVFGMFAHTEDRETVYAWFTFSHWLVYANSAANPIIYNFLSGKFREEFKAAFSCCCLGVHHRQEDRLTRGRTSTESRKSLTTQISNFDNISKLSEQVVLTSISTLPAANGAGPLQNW
Assay type: cell-based
Method in brief: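 Agonism was tested in CHO-K1 cells stably expressing human OX2 receptor (residues 1-444), loaded with Fluo-4 AM plus probenecid. Calcium fluorescence was recorded for 1 min 40 s after compound addition. Activity (%) was scaled between DMSO (0%) and 10 nM orexin A (100%) and reported at 3 μM compound.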

Row | Structure (SMILES) | OX2R agonist activity (3 μM, %) [%]
1 | CS(=O)(=O)N[C@@H]1[C@@H]2Cc3cccc(c3F)Oc3nc(ccc3Cl)OCC(=O)N2CC1(F)F [Example 62, N-[(15aS,16R)-7-chloro-17,17,20-trifluoro-1-oxo-1,2,15a,16,17,18-hexahydro-15H-4,8-(azeno)-14,10-(metheno)pyrrolo[1,2-d][1,12,4]dioxazacyclo-heptadecin-16-yl]methanesulfonamide] | 102
2 | CNS(=O)(=O)N[C@@H]1[C@@H]2Cc3cccc(c3F)Oc3nc(ccc3Cl)OCC(=O)N2CC1(F)F [Example 63, N-[(15aS,16R)-7-chloro-17,17,20-trifluoro-1-oxo-1,2,15a,16,17,18-hexahydro-15H-4,8-(azeno)-10,14-(metheno)pyrrolo[1,2-d][1,12,4]dioxazacyclo-heptadecin-16-yl]-N′-methylsulfuric diamide] | 106
3 | CS(=O)(=O)N[C@@H]1[C@@H]2Cc3cccc(c3F)Oc3nc(ncc3Cl)OCC(=O)N2CC1(F)F [Example 64, N-[(15aS,16R)-7-chloro-17,17,20-trifluoro-1-oxo-1,2,15a,16,17,18-hexahydro-15H-4,8-(azeno)-10,14-(metheno)pyrrolo[2,1-n][1,7,3,15]dioxadiazacyclo-heptadecin-16-yl]methanesulfonamide] | 105
4 | Cc1ncc2nc1Oc1cccc(c1F)C[C@H]1[C@@H](NS(C)(=O)=O)C(F)(F)CN1C(=O)CO2 [Example 65, N-[(15aS,16R)-17,17,20-trifluoro-7-methyl-1-oxo-1,2,15a,16,17,18-hexahydro-15H-4,8-(azeno)-10,14-(metheno)pyrrolo[1,2-j][1,7,4,10]dioxadiazacyclo-heptadecin-16-yl]methanesulfonamide] | 102
5 | Cc1ccc2nc1COc1cccc(c1F)C[C@H]1[C@@H](NS(C)(=O)=O)C(F)(F)CN1C(=O)CO2 [Example 66, N-[(16aS,17R)-18,18,21-trifluoro-7-methyl-1-oxo-1,2,16a,17,18,19-hexahydro-9H,16H-4,8-(azeno)-11,15-(metheno)pyrrolo[1,2-d][1,12,4]dioxazacyclo-octadecin-17-yl]methanesulfonamide] | 97
6 | CS(=O)(=O)N[C@H]1[C@@H](F)CN2C(=O)COc3ccc(Cl)c(n3)Cc3cccc(c3F)C[C@@H]12 [Example 67, N-[(15aS,16R,17S)-7-chloro-17,20-difluoro-1-oxo-1,2,15a,16,17,18-hexahydro-9H,15H-4,8-(azeno)-14,10-(metheno)pyrrolo[1,2-d][1,4]oxazacycloheptadecin-16-yl]methanesulfonamide] | 103
7 | CCS(=O)(=O)N[C@H]1[C@@H](F)CN2C(=O)COc3ccc(Cl)c(n3)Oc3cccc(c3)C[C@@H]12 [Example 69, N-[(15aS,16R,17S)-7-chloro-17-fluoro-1-oxo-1,2,15a,16,17,18-hexahydro-15H-4,8-(azeno)-14,10-(metheno)pyrrolo[1,2-d][1,12,4]dioxazacyclo-heptadecin-16-yl]ethanesulfonamide] | 101
8 | CCS(=O)(=O)N[C@H]1[C@@H](F)CN2C(=O)N(C)Cc3ccc(Cl)c(n3)Oc3cccc(c3)C[C@@H]12 [Example 70, N-[(15aS,16R,17S)-7-chloro-17-fluoro-2-methyl-1-oxo-2,3,15a,16,17,18-hexahydro-1H,15H-4,8-(azeno)-10,14-(metheno)pyrrolo[1,2-j][1,8,10]oxadiazacyclo-heptadecin-16-yl]ethanesulfonamide] | 103
9 | CCS(=O)(=O)N[C@H]1[C@@H](F)CN2C(=O)COc3ncc(C)c(n3)Oc3cccc(c3)C[C@@H]12 [Example 71, N-[(15aS,16R,17S)-17-fluoro-7-methyl-1-oxo-1,2,15a,16,17,18-hexahydro-15H-4,8-(azeno)-10,14-(metheno)pyrrolo[2,1-n][1,7,3,15]dioxadiazacyclo-heptadecin-16-yl]ethanesulfonamide] | 99

Reference: patent publication US20240309016A1, “MACROCYCLIC HETEROCYCLE COMPOUNDS AND USE THEREOF” (TAKEDA PHARMACEUTICAL COMPANY LIMITED, priority 2023, published 2024)
